Paper PMC10154443, “Peptide-based PET imaging agent of tumor TIGIT expression” (EJNMMI Research, 2023)
Where a SMILES comes first, the peptide text is derived from it. [ ]: non-standard residue; d: D form. The star is where a group is joined. DOTA = O=C(O)CN1CCN(CC(=O)O)CCN(CC(=O)*)CCN(CC(=O)O)CC1; Ahx = NCCCCCC(=O)O

Tests used:
[1] = system: 4T1 tumor-bearing BALB/c mice; type: in vivo
Method: (§1) Female BALB/c mice of 4–5 weeks were purchased from Beijing Biotechnology Co., Ltd. (Beijing, China). The 4T1 murine cancer model was established by the injection of 3 × 10^5 cells/150 μl into the front right limbs of female BALB/c mice. Experiments started when the tumors reached a volume of approximately 250–350 mm^3.
PET images were acquired on a micro-PET scanner (InliView-3000B, Minfound, Hangzhou, China). Mice bearing subcutaneous tumors were anesthetized with isoflurane (1.0–1.5%) and then were injected with about 5.55 MBq of ^68Ga-DOTA-^DTBP-3 via the tail vein. In the blocking group, tumor-bearing BALB/c were pretreated with the 40-fold excess of ^DTBP-3 for 0.5 h, and then injected equal dose of radiotracer with the above groups. Static imaging (15 min) was collected at different time points (0.5, 1 and 2 h post-injection).

4T1 cells = test: cell uptake experiment, 4T1 cells; type: cell-based, murine
Method: (§2) For cell uptake experiments, 4T1 and A375 cells were incubated with ^68Ga-DOTA-^DTBP-3 at different time points (15, 30, 60 and 120 min), respectively. Then, the cells were washed 3 times with cold PBS, and 0.1 M NaOH solution was used to lyse the cells and collected for γ-count.

[2] = system: 4T1 tumor-bearing BALB/c mice; type: in vivo; remark: listed apart in the source
Method: as §1
Female BALB/c tumor-bearing mice with subcutaneous 4T1 xenografts were randomly divided into 2 groups (n = 9 for the experimental group, and n = 3 for the blocking group), and then were injected with 3.70 MBq of ^68Ga-DOTA-^DTBP-3 via the tail vein. At different time points (0.5, 1 and 2 h post-injection for the experimental group, 0.5 h post-injection for the blocking group), the mice were euthanized, and the tumor, main organs (muscle, bone, large intestine, small intestine, stomach, kidney, spleen, liver, lung, heart, brain) and blood were weighed and counted by a γ counter. The results are expressed as percentage injected dose per gram of tissue (% ID/g), and the values were calculated based on signal decay correction and normalization to external ^68Ga standards.

A375 cells = test: cell uptake experiment, A375 cells; type: cell-based, human; conditions: A375 cells (low TIGIT expression), at 0.5 h; time points 15, 30, 60, 120 min; γ-count
Method: as §2

Structure (SMILES): CC(C)C[C@@H](NC(=O)[C@@H](CCCNC(=N)N)NC(=O)[C@@H](Cc1c[nH]cn1)NC(=O)[C@@H](Cc1c[nH]c2ccccc12)NC(=O)[C@@H](Cc1c[nH]cn1)NC(=O)[C@@H](Cc1ccccc1)NC(=O)[C@H](NC(=O)[C@@H](Cc1ccc(O)cc1)NC(=O)CNC(=O)CNC(=O)CCCCCNC(=O)CN1CCN(CC(=O)O)CCN(CC(=O)O)CCN(CC(=O)O)CC1)[C@H](C)O)C(=O)N[C@H](CC(N)=O)C(=O)N1CCC[C@@H]1C(=O)O [^68Ga-DOTA-^DTBP-3, metal not drawn] ({DOTA-Ahx}-GG[dY][dT][dF][dH][dW][dH][dR][dL][dN][dP]-OH; N-terminus and C-terminus assumed)
- tumor uptake on micro-PET ([1]; 4T1 tumor, 0.5 h after intravenous injection, about 5.55 MBq, n = 3): 3.49 ± 0.14
- tumor uptake on micro-PET, blocking group ([1]; 4T1 tumor-bearing mice pretreated with 40-fold excess unlabeled ^DTBP-3 for 0.5 h): no obvious uptake
- time of peak uptake of tumor tissue ([1]; mouse, in vivo): about 0.5 h
- cell uptake of radiotracer (highest) (4T1 cells; 4T1 cells (high TIGIT expression), at 0.5 h, time points 15, 30, 60, 120 min, γ-count): 8.41 ± 1.22%
- 4T1 cellular uptake with excess unlabeled ^DTBP-3 (blocking) (4T1 cells; 4T1 cells, excess unlabeled ^DTBP-3): could be blocked
- tumor-to-blood ratio (biodistribution) ([2]; 0.5 h post-injection): high
- tumor-to-muscle ratio (biodistribution) ([2]; 0.5 h post-injection): high
- clearance from the blood ([2]; mouse, in vivo): quickly cleared
- cell uptake of radiotracer (highest) (A375 cells): 2.56 ± 0.19%
